Source: publication PMC4890124, “Antimicrobial activity, improved cell selectivity and mode of action of short PMAP-36-derived peptides against bacteria and Candida” (Scientific Reports, 2016)
Values after ≈ are worked out from the molar mass of the structure shown. Where two headings read alike, the source gives them in different places. Marks after values point to notes of the source that are not given here. Peptide text beside a SMILES is read from it.

Legend:
[1] = system: Bacillus subtilis CMCC 63501; format: cell-based
Description: (§1) The peptide antibacterial activity was determined against both gram-positive and gram-negative bacteria strains, including Escherichia coli ATCC 25922, Escherichia coli UB1005, Salmonella enterica serovar typhimurium C77-31, Staphylococcus aureus ATCC 29213, Staphylococcus aureus ATCC 25923, Bacillus subtilis CMCC 63501, and Staphylococcus epidermidis ATCC 12228. Clinically isolated Escherichia coli EC183 was provided by the 4th Affiliated Hospital of Harbin Medical University. MIC of the peptides was measured using a modified version of the National Committee for Clinical Laboratory Standards (NCCLS) broth microdilution method as described previously. The bacterial strains were inoculated and grown to mid-log phase in fresh Mueller-Hinton broth (MHB) at 37 °C. Bacterial inoculum suspensions were prepared at a final concentration of approximately 1 × 10^5 CFU/ml. Peptides were 2-fold serially diluted to make different concentrations, from 0.5 to 256 μM. Equal volumes of inoculum suspensions were then added to each well of a sterile 96-well plate with different concentrations of peptides, and the plate was incubated for 18 h at 37 °C. Broth with or without bacteria was employed as the positive control or the negative control, respectively. MIC was defined as the lowest concentration of peptides that prevented visible turbidity by visual inspection. […] After overnight incubation at 37 °C, MBC was defined as the lowest concentration of peptides that killed at least 99.9% of the initial inoculums. Experiments were performed in triplicate with three biological replicates.

[2] = system: Salmonella enterica serovar typhimurium C77-31; format: cell-based; settings: three independent experiments; for MBC S. typhi C77-31: lowest concentration killing at least 99.9% of initial inoculum
Description: as §1

[3] = system: Staphylococcus aureus ATCC 25923; format: cell-based; settings: ATCC 25923, 18 h
Description: as §1

[4] = system: Clinically isolated Escherichia coli EC183; format: cell-based
Description: as §1

[5] = system: Staphylococcus aureus ATCC 29213; format: cell-based
Description: as §1

Escherichia coli UB1005 [6] = format: cell-based
Description: as §1

[7] = system: Staphylococcus epidermidis ATCC 12228; format: cell-based; settings: ATCC 12228, 18 h
Description: as §1

[8] = system: Escherichia coli ATCC 25922; format: cell-based
Description: as §1

[9] = system: C. albicans CA276 (clinical isolate); assay: microbe, parasite or virus in culture; format: cell-based, Candida albicans
Description: (§2) The antifungal activities were monitored in RPMI-1640 broth medium by a 2-fold microdilution assay according to the Clinical and Laboratory Standards Institute (CLSI) methods. The Candida albicans CGMCC 2.2086, Candida tropicalis CGMCC 2.1975, and Candida krusei CGMCC 2.1857 fungal strains were purchased from the China General Microbiological Culture Collection Center (CGMCC, Beijing, China). Clinically isolated Candida albicans CA2761 was provided by the 4th Affiliated Hospital of Harbin Medical University. Briefly, fungal strains were cultured on YPD agar plates (1% peptone, 0.5% yeast extract, 1% glucose and 2% agar) at 28 °C to prepare Candida suspensions with a turbidity of a 0.5 McFarland standard. A total of 50 μl inoculum cell suspension diluted in RPMI-1640 broth medium was added to an equal volume of peptide solution to achieve a final peptide concentrations ranging from 0.25 μM to 128 μM in a 96-well plate. Pure broth alone or with inoculum suspensions was used as the negative control or the positive control, respectively. The plate was incubated at 28 °C for 48 h. MIC was considered the lowest concentration at which no fungal growth was visually observed under experimental conditions. […] After 48 h incubation at 28 °C, MFC was defined as the lowest concentration of peptides that killed at least 99.9% of the initial inoculums. Experiments were performed in triplicate with three biological replicates.

[10] = system: Candida albicans CGMCC 2.2086; assay: microbe, parasite or virus in culture; format: cell-based
Description: as §2

[11] = system: Candida krusei CGMCC 2.1857; assay: microbe, parasite or virus in culture; format: cell-based
Description: as §2

[12] = system: Candida tropicalis CGMCC 2.1975; assay: microbe, parasite or virus in culture; format: cell-based
Description: as §2

[13] = system: Escherichia coli ATCC 25922; settings: values marked c, determined as previously described; cited from earlier work
Description: Table 2 MIC and MBC of the peptides against bacteria. | column: MIC ^a (MBC ^b) (μM) / Gram-negative bacteria / E. coli 25922

[14] = system: Salmonella enterica serovar typhimurium C77-31; settings: values marked c, determined as previously described; cited from earlier work
Description: Table 2 MIC and MBC of the peptides against bacteria. | column: MIC ^a (MBC ^b) (μM) / Gram-negative bacteria / S. typhi C77-31

[15] = system: Staphylococcus epidermidis ATCC 12228; settings: values marked c, determined as previously described; cited from earlier work
Description: Table 2 MIC and MBC of the peptides against bacteria. | column: MIC ^a (MBC ^b) (μM) / Gram-positive bacteria / S. epidermidis 12228

[16] = system: Staphylococcus aureus ATCC 29213; settings: values marked c, determined as previously described; cited from earlier work
Description: Table 2 MIC and MBC of the peptides against bacteria. | column: MIC ^a (MBC ^b) (μM) / Gram-positive bacteria / S. aureus 29213

Escherichia coli UB1005 [17] = settings: values marked c, determined as previously described; cited from earlier work
Description: Table 2 MIC and MBC of the peptides against bacteria. | column: MIC ^a (MBC ^b) (μM) / Gram-negative bacteria / E. coli 1005

[18] = system: Staphylococcus aureus ATCC 25923; settings: values marked c, determined as previously described; cited from earlier work
Description: Table 2 MIC and MBC of the peptides against bacteria. | column: MIC ^a (MBC ^b) (μM) / Gram-positive bacteria / S. aureus 25923

[19] = system: fungi (four Candida strains); assay: Geometric mean MIC and selectivity index, panel of fungi; format: cell-based; settings: geometric mean of the MIC values against the fungi of Table 3
Description: The antifungal activities were monitored in RPMI-1640 broth medium by a 2-fold microdilution assay according to the Clinical and Laboratory Standards Institute (CLSI) methods. The Candida albicans CGMCC 2.2086, Candida tropicalis CGMCC 2.1975, and Candida krusei CGMCC 2.1857 fungal strains were purchased from the China General Microbiological Culture Collection Center (CGMCC, Beijing, China). Clinically isolated Candida albicans CA2761 was provided by the 4th Affiliated Hospital of Harbin Medical University. Briefly, fungal strains were cultured on YPD agar plates (1% peptone, 0.5% yeast extract, 1% glucose and 2% agar) at 28 °C to prepare Candida suspensions with a turbidity of a 0.5 McFarland standard. A total of 50 μl inoculum cell suspension diluted in RPMI-1640 broth medium was added to an equal volume of peptide solution to achieve a final peptide concentrations ranging from 0.25 μM to 128 μM in a 96-well plate. Pure broth alone or with inoculum suspensions was used as the negative control or the positive control, respectively. The plate was incubated at 28 °C for 48 h. MIC was considered the lowest concentration at which no fungal growth was visually observed under experimental conditions. […]
SI values were determined by the ratio of MHC to GM, indicating the specificity of peptides towards pathogens and eukaryotic cells. […]

[20] = Clinically isolated EC183, 18 h
[21] = lowest concentration killing at least 99.9% of initial inoculum, three independent experiments
[22] = CLSI 2-fold microdilution, RPMI-1640, 28 °C for 48 h, visual, three independent experiments
[23] = lowest concentration killing at least 99.9% of initial inoculum, YPD agar, 48 h at 28 °C, three independent experiments

SMILES: CC[C@H](C)[C@H](NC(=O)[C@H](Cc1c[nH]c2ccccc12)NC(=O)[C@H](CCCCN)NC(=O)[C@H](CC(C)C)NC(=O)[C@@H](NC(=O)[C@H](CCCCN)NC(=O)CNC(=O)[C@@H](NC(=O)[C@H](CCCCN)NC(=O)[C@H](CCCCN)NC(=O)[C@H](CC(C)C)NC(=O)[C@H](CCCNC(=N)N)NC(=O)[C@H](CCCCN)NC(=O)[C@H](CCCNC(=N)N)NC(=O)[C@@H](N)[C@@H](C)O)[C@@H](C)CC)C(C)C)C(N)=O [TI15] (H-TRKRLKKIGKVLKWI-NH2)
- MBC B. subtilis 63501 ([1]; CMCC 63501, 18 h): 4 µM (≈ 7.47 µg/mL)
- MIC B. subtilis 63501 ([1]; CMCC 63501, 18 h): 2 µM (≈ 3.73 µg/mL)
- MIC S. typhi C77-31 ([2]; broth microdilution, MHB, ~1 × 10^5 CFU/ml, 18 h at 37 °C, visual): 8 µM (≈ 14.9 µg/mL)
- MBC S. typhi C77-31 [2]: 32 µM (≈ 59.7 µg/mL)
- MBC S. aureus 25923 [3]: 128 µM (≈ 239 µg/mL)
- MIC S. aureus 25923 [3]: 32 µM (≈ 59.7 µg/mL)
- MBC E. coli EC183 [4, 20]: 4 µM (≈ 7.47 µg/mL)
- MIC E. coli EC183 [4, 20]: 2 µM (≈ 3.73 µg/mL)
- MBC S. aureus 29213 ([5]; ATCC 29213, 18 h): 128 µM (≈ 239 µg/mL)
- MIC S. aureus 29213 ([5]; ATCC 29213, 18 h): 32 µM (≈ 59.7 µg/mL)
- MBC E. coli 1005 (Escherichia coli UB1005 [6]; UB1005, 18 h): 8 µM (≈ 14.9 µg/mL)
- MIC E. coli 1005 (Escherichia coli UB1005 [6]; UB1005, 18 h): 4 µM (≈ 7.47 µg/mL)
- MBC S. epidermidis 12228 [7]: 64 µM (≈ 119 µg/mL)
- MIC S. epidermidis 12228 [7]: 32 µM (≈ 59.7 µg/mL)
- MBC E. coli 25922 ([8]; ATCC 25922, 18 h): 16 µM (≈ 29.9 µg/mL)
- MIC E. coli 25922 ([8]; ATCC 25922, 18 h): 8 µM (≈ 14.9 µg/mL)
- MFC C. albicans CA276 ([9]; CA276 (clinical isolate, 48 h)): 128 µM (≈ 239 µg/mL)
- MIC C. albicans CA276 ([9]; CA276 (clinical isolate, 48 h)): 128 µM (≈ 239 µg/mL)
- MFC C. albicans 2.2086 ([10]; CGMCC 2.2086, 48 h): 64 µM (≈ 119 µg/mL)
- MIC C. albicans 2.2086 ([10]; CGMCC 2.2086, 48 h): 64 µM (≈ 119 µg/mL)
- MFC ([11]; CGMCC 2.1857, 48 h, read-out: MFC C. krusei 2.1857): 16 µM (≈ 29.9 µg/mL)
- MIC ([11]; CGMCC 2.1857, 48 h, read-out: MIC C. krusei 2.1857): 8 µM (≈ 14.9 µg/mL)
- MFC ([12]; CGMCC 2.1975, 48 h, read-out: MFC C. tropicalis 2.1975): 4 µM (≈ 7.47 µg/mL)
- MIC ([12]; CGMCC 2.1975, 48 h, read-out: MIC C. tropicalis 2.1975): 2 µM (≈ 3.73 µg/mL)

SMILES: CC[C@H](C)[C@H](NC(=O)CN)C(=O)NCC(=O)N[C@@H](C)C(=O)N[C@H](C(=O)N[C@@H](CC(C)C)C(=O)N[C@@H](CCCCN)C(=O)N[C@H](C(=O)N[C@@H](CC(C)C)C(=O)N[C@H](C(=O)N[C@H](C(=O)NCC(=O)N[C@@H](CC(C)C)C(=O)N1CCC[C@H]1C(=O)N[C@@H](C)C(=O)N[C@@H](CC(C)C)C(=O)N[C@H](C(=O)N[C@@H](CO)C(=O)N[C@@H](Cc1c[nH]c2ccccc12)C(=O)N[C@H](C(=O)N[C@@H](CCCCN)C(=O)N[C@@H](CCCNC(=N)N)C(=O)N[C@@H](CCCCN)C(=O)N[C@@H](CCCNC(=N)N)C(=O)N[C@@H](CCC(N)=O)C(=O)N[C@@H](CCC(N)=O)C(N)=O)[C@@H](C)CC)[C@@H](C)CC)[C@@H](C)O)[C@@H](C)O)C(C)C)C(C)C [melittin, reference compound]
- MIC E. coli 25922 [13]: 2 µM (≈ 5.69 µg/mL)
- MIC S. typhi C77-31 [14]: 2^c (2) μM
- MIC S. epidermidis 12228 [15]: 0.5 µM (≈ 1.42 µg/mL)
- MBC B. subtilis 63501 [1, 21]: 2 µM (≈ 5.69 µg/mL)
- MBC S. typhi C77-31 [2]: 2^c (2) μM
- MIC E. coli EC183 ([4]; broth microdilution, MHB, ~1 × 10^5 CFU/ml, 18 h at 37 °C, visual, three independent experiments): 2 µM (≈ 5.69 µg/mL)
- MBC E. coli EC183 [4, 21]: 2 µM (≈ 5.69 µg/mL)
- MBC S. aureus 29213 [5, 21]: 16 µM (≈ 45.5 µg/mL)
- MBC E. coli 1005 (Escherichia coli UB1005 [6]; [21]): 4 µM (≈ 11.4 µg/mL)
- MBC E. coli 25922 ([8]; lowest concentration killing at least 99.9% of initial inoculum, plated on MHA after MIC incubation, three independent experiments): 4 µM (≈ 11.4 µg/mL)
- MIC S. aureus 29213 [16]: 8 µM (≈ 22.8 µg/mL)
- MIC [9, 22]: 8 µM (≈ 22.8 µg/mL)
- MFC [9, 23]: 16 µM (≈ 45.5 µg/mL)
- MIC E. coli 1005 (Escherichia coli UB1005 [17]): 2 µM (≈ 5.69 µg/mL)
- MIC S. aureus 25923 [18]: 8^c (8) μM
- MIC [10, 22]: 4 µM (≈ 11.4 µg/mL)
- MFC [10, 23]: 8 µM (≈ 22.8 µg/mL)
- MIC [11, 22]: 2 µM (≈ 5.69 µg/mL)
- MFC [11, 23]: 4 µM (≈ 11.4 µg/mL)
- MIC C. tropicalis 2.1975 [12, 22]: 2 µM (≈ 5.69 µg/mL)
- MFC C. tropicalis 2.1975 [12, 23]: 2 µM (≈ 5.69 µg/mL)
- GM (geometric mean of MIC values) Fungi [19]: 3.36 µM
